# Tested on: Colletotrichum gloeosporioides (CBS272.51)
# Experiment: Agar plug bio-assay on YME agar, fungal colony radius towards Streptomyces or natamycin plug
# Assay type: cell-based
# Conditions: Table 7; 10 ppm natamycin in agar plug (5% w/w methanol), 7 days at 28° C.
# Protocol: Three fungal plant pathogens were tested against the selected S. natalensis strains: Fusarium oxysporum f.sp. lycopersici (CBS414.90), Colletotrichum gloeosporioides (CBS272.51) and Alternaria alternata (CBS103.33). Fusarium oxysporum f.sp. lycopersici is a soil borne fungus causing yield loss in e.g. tomato crops (Fusarium Wilt). Colletotrichum gloeosporioides causes e.g. anthracnose, a plant disease recognizable by dark brown lesions on leaves and fruits. Alternaria alternata is a worldwide occurring saprophyte that can cause phytopathogenic reactions in economically important host plants. The selected S. natalensis strains were tested against these fungal plant pathogens as described below.
# Frozen vials (glycerol stocks) or freeze dried tubes from the selected S. natalensis strains were transferred to 100 ml baffled Erlenmeyer flasks containing 20 ml of Yeast Malt Extract broth (YME). […]
# The bio-assay was done as follows. […] After 7 days the radius of the fungal colony was measured in the direction of the opposite agar plug (Streptomyces sample). […] The inhibition zone (in percentage) was calculated by using the following formula: 100% * (r0-r1)/r0, wherein r0is the radius (in mm, corrected for the plug radius) of the fungal colony from the control sample and wherein r1 is the radius (in mm, corrected for the plug radius) of the fungal colony from the Streptomyces inhibited sample. […]
smiles,measurement,value
"C[C@@H]1C/C=C/C=C/C=C/C=C/[C@H](O[C@@H]2O[C@H](C)[C@@H](O)[C@H](N)[C@@H]2O)C[C@@H]2O[C@](O)(C[C@@H](O)C[C@H]3O[C@@H]3/C=C/C(=O)O1)C[C@H](O)[C@H]2C(=O)O [Natamycin, natamycin]",Average inhibition zone (in %),not as high

# — patent US20160128336A1, “MICROBIAL AGRICULTURE” (DSM IP ASSETS B.V., priority 2013, published 2016)
